From ChEMBL document CHEMBL5678818, “Discovery of potent SOS1 inhibitors that block RAS activation via disruption of the RAS-SOS1 interaction” (Proc Natl Acad Sci U S A, 2019)

Columns and labels:
[1] = biological target: Bone morphogenetic protein receptor type-1B (Homo sapiens) (UniProt O00238); assay: Inhibition of BMPR1B (unknown origin) assessed as residual activity at 1000 nM by KINOMEscan analysis relative to control
[2] = biological target: T1, Bone morphogenetic protein receptor type-2 (Homo sapiens) (UniProt Q13873); assay: Inhibition of BMPR2 (unknown origin) assessed as residual activity at 1000 nM by KINOMEscan analysis relative to control
T1 sequence (whole entry): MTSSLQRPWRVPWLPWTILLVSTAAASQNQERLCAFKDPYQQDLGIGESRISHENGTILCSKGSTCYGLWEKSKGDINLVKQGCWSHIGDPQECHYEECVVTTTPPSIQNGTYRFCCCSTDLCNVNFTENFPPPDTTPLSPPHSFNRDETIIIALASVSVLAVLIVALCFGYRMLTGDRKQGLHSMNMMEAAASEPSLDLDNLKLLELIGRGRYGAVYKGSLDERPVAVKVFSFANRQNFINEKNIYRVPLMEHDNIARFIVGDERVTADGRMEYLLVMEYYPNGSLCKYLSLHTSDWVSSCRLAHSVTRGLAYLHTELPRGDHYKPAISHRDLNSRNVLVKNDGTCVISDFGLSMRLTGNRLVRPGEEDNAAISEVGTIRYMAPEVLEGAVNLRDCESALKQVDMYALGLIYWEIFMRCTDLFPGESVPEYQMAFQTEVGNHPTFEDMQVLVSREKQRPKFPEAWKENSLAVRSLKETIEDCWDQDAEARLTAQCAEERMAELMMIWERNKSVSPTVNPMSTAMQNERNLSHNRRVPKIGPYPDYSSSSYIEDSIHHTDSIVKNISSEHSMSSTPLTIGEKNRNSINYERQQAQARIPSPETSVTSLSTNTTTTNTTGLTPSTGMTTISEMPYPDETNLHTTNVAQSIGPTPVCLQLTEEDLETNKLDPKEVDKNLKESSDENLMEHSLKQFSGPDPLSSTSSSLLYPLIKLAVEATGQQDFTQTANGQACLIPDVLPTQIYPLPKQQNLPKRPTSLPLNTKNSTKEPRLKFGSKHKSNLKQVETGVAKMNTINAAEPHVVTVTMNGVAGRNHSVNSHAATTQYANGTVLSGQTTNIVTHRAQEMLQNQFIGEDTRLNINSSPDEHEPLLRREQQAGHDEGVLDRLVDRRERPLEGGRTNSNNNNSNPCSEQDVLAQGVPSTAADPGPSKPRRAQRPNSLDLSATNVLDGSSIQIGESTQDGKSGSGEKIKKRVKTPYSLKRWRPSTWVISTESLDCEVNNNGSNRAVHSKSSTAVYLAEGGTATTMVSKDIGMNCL

[3] = biological target: T2, Serine/threonine-protein kinase BRSK2 (Homo sapiens) (UniProt Q8IWQ3); assay: Inhibition of BRSK2 (unknown origin) assessed as residual activity at 1000 nM by KINOMEscan analysis relative to control
T2 sequence (whole entry): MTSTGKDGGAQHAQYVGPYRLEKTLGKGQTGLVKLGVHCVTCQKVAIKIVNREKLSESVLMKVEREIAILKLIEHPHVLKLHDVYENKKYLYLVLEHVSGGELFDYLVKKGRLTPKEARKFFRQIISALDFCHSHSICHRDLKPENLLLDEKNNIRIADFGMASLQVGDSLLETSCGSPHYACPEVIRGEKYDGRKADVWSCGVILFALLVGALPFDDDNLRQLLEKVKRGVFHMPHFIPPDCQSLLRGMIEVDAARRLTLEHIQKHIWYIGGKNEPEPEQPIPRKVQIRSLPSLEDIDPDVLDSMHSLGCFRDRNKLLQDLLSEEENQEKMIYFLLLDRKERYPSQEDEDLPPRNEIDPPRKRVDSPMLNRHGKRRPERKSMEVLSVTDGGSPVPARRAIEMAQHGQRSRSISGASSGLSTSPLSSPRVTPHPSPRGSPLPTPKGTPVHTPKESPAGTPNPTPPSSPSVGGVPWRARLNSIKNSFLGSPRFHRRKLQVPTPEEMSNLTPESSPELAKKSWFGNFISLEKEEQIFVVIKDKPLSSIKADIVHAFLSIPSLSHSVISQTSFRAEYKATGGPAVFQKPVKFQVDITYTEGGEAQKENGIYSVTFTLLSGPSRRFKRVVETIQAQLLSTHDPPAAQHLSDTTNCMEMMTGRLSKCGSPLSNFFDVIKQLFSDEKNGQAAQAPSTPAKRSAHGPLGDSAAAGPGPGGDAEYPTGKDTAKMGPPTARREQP

[4] = biological target: Casein kinase I isoform gamma-2 (Homo sapiens) (UniProt P78368); assay: Inhibition of CSNK1G2 (unknown origin) assessed as residual activity at 1000 nM by KINOMEscan analysis relative to control
Casein kinase I isoform gamma-2 (Homo sapiens), sequence (P78368 whole entry, looked up, canonical isoform): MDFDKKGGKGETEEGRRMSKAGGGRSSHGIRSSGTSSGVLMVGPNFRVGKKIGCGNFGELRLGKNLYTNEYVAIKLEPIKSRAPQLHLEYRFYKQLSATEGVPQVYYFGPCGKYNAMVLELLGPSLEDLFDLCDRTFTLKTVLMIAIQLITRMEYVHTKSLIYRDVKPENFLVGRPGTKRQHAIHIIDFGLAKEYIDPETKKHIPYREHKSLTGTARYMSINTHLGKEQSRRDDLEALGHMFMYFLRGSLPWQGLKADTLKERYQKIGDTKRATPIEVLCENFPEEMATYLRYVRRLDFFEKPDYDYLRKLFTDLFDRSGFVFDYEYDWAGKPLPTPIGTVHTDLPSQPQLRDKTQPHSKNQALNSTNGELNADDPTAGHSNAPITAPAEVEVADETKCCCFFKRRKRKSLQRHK

[5] = biological target: T3, Serine/threonine-protein kinase 17B (Homo sapiens) (UniProt O94768); assay: Inhibition of DRAK2 (unknown origin) assessed as residual activity at 1000 nM by KINOMEscan analysis relative to control
T3 sequence (whole entry): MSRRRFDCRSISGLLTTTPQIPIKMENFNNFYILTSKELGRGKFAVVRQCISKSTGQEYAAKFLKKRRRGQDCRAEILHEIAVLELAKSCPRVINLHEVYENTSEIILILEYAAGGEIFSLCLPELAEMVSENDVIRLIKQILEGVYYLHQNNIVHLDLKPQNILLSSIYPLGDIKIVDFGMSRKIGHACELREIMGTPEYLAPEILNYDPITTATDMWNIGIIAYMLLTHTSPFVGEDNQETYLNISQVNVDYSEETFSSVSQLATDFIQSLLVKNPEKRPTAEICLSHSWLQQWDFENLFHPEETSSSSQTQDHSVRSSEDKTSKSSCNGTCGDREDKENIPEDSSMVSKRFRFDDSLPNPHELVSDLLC

[6] = biological target: Tyrosine-protein kinase Fyn (Homo sapiens) (UniProt P06241); assay: Inhibition of FYN (unknown origin) assessed as residual activity at 1000 nM by KINOMEscan analysis relative to control
Tyrosine-protein kinase Fyn (Homo sapiens), sequence (P06241 2-537 limits assumed): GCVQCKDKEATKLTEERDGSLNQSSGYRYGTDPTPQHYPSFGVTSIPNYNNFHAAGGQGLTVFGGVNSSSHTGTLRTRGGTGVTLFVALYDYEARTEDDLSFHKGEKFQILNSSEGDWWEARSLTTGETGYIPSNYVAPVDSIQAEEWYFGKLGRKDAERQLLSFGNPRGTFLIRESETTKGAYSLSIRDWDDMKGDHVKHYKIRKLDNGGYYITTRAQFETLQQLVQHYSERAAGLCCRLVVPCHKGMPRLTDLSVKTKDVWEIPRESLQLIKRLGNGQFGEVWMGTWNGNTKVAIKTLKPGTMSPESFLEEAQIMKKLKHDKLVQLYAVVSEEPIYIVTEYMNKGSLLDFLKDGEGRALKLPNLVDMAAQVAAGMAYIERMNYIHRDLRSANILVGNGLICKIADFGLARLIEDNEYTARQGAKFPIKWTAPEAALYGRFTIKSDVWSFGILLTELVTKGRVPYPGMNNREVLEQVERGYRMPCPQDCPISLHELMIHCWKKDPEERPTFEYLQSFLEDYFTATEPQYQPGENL

Homo sapiens = species on record: Homo sapiens; assay: Inhibition of JNK2 (unknown origin) assessed as residual activity at 1000 nM by KINOMEscan analysis relative to control
[7] = biological target: Transient receptor potential cation channel subfamily M member 6 (Homo sapiens) (UniProt Q9BX84); assay: Inhibition of TRPM6 (unknown origin) assessed as residual activity at 1000 nM by KINOMEscan analysis relative to control
Transient receptor potential cation channel subfamily M member 6 (Homo sapiens), sequence (Q9BX84 whole entry): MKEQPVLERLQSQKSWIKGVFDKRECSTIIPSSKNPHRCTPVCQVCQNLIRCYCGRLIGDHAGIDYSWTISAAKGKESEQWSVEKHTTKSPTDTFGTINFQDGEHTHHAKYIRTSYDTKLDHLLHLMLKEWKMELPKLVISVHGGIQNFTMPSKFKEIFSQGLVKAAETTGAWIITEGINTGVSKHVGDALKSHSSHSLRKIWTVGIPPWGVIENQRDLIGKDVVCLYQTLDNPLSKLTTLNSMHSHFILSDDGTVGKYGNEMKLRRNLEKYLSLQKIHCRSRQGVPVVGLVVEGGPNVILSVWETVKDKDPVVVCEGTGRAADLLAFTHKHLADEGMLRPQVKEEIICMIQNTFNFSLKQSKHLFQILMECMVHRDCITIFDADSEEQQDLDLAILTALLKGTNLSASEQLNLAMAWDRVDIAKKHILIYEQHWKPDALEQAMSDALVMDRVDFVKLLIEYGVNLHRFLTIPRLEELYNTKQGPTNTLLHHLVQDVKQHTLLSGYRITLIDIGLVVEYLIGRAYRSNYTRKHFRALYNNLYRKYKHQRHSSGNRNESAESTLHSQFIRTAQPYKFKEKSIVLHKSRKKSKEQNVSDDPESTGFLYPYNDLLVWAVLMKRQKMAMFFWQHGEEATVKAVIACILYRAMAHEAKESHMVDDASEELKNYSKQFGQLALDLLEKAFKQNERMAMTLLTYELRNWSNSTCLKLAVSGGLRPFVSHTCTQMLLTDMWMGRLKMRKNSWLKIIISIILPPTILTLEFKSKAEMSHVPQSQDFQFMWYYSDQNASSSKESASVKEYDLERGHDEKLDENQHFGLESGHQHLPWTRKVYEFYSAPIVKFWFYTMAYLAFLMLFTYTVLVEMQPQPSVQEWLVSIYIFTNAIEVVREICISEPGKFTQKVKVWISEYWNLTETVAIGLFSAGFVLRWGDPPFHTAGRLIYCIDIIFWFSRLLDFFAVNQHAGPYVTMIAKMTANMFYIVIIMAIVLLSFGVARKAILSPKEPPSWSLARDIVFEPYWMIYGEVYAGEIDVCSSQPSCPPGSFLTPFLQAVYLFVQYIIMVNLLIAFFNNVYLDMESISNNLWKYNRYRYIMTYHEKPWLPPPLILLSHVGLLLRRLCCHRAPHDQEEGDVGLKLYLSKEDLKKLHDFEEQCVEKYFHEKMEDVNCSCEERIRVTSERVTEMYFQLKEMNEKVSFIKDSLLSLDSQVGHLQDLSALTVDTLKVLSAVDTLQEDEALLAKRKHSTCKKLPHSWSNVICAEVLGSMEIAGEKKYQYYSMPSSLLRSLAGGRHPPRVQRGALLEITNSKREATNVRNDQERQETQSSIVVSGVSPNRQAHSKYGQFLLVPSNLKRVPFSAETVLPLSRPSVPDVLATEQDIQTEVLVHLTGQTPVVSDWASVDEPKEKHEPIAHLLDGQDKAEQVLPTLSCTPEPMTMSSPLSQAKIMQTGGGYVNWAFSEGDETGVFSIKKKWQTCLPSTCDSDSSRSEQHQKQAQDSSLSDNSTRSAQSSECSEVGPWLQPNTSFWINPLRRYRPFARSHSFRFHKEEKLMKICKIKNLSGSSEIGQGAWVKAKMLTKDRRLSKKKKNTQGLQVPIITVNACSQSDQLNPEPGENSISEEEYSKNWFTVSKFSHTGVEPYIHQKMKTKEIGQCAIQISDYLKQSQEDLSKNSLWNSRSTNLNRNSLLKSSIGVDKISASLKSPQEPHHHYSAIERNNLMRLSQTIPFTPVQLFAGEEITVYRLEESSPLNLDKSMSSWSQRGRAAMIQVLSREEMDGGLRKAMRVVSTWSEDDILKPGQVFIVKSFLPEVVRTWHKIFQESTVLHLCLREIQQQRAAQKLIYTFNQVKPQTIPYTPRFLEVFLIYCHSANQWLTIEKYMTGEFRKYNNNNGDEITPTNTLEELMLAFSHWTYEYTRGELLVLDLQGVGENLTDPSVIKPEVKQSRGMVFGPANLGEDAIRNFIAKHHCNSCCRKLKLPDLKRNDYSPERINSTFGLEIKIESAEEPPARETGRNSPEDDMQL

Bone morphogenetic protein receptor type-1B (Homo sapiens), sequence (O00238 whole entry): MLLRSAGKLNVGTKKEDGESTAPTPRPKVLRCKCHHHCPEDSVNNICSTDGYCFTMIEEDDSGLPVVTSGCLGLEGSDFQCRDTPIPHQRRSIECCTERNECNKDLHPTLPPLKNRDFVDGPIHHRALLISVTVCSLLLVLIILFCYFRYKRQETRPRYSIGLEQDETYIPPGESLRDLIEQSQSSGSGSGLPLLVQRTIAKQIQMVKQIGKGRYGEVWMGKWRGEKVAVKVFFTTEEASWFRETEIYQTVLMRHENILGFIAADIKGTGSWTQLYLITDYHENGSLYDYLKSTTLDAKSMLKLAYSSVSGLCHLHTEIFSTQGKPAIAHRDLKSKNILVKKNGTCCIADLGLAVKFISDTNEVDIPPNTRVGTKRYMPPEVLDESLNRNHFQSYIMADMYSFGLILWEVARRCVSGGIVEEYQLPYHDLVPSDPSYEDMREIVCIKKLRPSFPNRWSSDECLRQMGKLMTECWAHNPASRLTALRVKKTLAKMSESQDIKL

Compound	Activity [1]	Activity [2]	Activity [3]	Activity [4]	Activity [5]	Activity [6]	Activity (Homo sapiens)	Activity [7]
COc1cc2nc(C)nc(N[C@H](C)c3cccc(-c4cn[nH]c4)c3)c2cc1OC	98%	83%	85%	100%	67%	72%	71%	84%
COc1cc2ncnc(N[C@H](C)c3cccc4ccccc34)c2cc1OC	94%	89%	78%	100%	100%	100%	93%	100%
